Source: patent US12037344B2, “NLRP3 modulators” (INNATE TUMOR IMMUNITY, INC., priority 2018, dated 2024)

Assays:
THP-1 cells = assay: Measurement of IL-1β production, hTRF protocol (second alternative procedure), THP-1 cells; assay type: cell-based, human; settings: Homo sapiens, THP-1, IL-1β production, human cells; read-out: NLRP3 hILIB EC50
Method in brief: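 Compounds, dilution series starting at a final 10 μM, were incubated 2 hours at 37° C with PMA-differentiated THP-1 cells (50 ng/ml overnight; 50,000 cells/well, 2% FBS RPMI). Released IL-1β quantified in supernatant by hTRF kit with 1:40 antibody dilution, 4° C overnight, 665/615 nm ratio.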

TLR7 = target: T1, TLR7 (Homo sapiens, UniProt Q9NYK1); assay: In vitro human TLR7 binding reporter assay (HEK-Blue, NF-kB/AP1-inducible SEAP); assay type: cell-based; settings: activity range, read-out: TLR7 Agonist EC50
T1 construct: human HEK-Blue cells co-expressing a TLR7 or TLR8 gene
T1 sequence (Q9NYK1 27-1049): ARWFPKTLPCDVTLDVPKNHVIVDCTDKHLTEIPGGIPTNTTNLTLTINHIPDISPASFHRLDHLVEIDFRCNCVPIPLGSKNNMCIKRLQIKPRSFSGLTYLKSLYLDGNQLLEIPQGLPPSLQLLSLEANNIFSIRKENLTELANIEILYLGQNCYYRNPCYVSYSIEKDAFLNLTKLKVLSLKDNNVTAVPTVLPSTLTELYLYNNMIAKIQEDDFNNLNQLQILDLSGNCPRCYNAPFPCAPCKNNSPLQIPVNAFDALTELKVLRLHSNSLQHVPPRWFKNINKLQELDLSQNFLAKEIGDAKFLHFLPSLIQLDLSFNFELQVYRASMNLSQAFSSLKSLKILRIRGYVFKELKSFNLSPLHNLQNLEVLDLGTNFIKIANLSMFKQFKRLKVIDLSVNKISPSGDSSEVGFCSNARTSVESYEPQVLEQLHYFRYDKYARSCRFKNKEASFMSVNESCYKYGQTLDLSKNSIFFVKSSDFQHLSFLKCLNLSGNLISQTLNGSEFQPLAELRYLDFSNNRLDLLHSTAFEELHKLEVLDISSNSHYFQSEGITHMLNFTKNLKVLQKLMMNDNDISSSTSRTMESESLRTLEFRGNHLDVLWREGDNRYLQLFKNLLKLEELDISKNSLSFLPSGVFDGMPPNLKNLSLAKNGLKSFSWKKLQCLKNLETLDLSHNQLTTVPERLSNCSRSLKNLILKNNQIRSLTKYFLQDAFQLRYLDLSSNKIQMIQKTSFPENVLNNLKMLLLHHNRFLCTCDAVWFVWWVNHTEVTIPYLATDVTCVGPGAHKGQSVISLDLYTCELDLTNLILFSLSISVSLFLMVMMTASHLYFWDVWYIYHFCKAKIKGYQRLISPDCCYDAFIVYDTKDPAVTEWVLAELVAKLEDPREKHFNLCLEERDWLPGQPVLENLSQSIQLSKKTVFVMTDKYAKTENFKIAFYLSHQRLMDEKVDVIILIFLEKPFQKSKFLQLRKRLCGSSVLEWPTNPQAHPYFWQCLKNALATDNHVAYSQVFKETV
Method in brief: (§1)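 Cells are seeded and grown for 24 h. Compounds or DMSO are then added and incubated 18 h at 37 °C. Quanti-Blue is added, and SEAP is read after thirty minutes. EC50 values are normalized, with RLU from 50 μM reference standard setting 100% Ymax.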

TLR8 = target: T2, TLR8 (Homo sapiens, UniProt Q9NR97); assay: In vitro human TLR8 binding reporter assay (HEK-Blue, NF-kB/AP1-inducible SEAP); assay type: cell-based; settings: activity range, read-out: TLR8 Agonist EC50
T2 construct: human HEK-Blue cells co-expressing a TLR7 or TLR8 gene
T2 sequence (Q9NR97 27-1041): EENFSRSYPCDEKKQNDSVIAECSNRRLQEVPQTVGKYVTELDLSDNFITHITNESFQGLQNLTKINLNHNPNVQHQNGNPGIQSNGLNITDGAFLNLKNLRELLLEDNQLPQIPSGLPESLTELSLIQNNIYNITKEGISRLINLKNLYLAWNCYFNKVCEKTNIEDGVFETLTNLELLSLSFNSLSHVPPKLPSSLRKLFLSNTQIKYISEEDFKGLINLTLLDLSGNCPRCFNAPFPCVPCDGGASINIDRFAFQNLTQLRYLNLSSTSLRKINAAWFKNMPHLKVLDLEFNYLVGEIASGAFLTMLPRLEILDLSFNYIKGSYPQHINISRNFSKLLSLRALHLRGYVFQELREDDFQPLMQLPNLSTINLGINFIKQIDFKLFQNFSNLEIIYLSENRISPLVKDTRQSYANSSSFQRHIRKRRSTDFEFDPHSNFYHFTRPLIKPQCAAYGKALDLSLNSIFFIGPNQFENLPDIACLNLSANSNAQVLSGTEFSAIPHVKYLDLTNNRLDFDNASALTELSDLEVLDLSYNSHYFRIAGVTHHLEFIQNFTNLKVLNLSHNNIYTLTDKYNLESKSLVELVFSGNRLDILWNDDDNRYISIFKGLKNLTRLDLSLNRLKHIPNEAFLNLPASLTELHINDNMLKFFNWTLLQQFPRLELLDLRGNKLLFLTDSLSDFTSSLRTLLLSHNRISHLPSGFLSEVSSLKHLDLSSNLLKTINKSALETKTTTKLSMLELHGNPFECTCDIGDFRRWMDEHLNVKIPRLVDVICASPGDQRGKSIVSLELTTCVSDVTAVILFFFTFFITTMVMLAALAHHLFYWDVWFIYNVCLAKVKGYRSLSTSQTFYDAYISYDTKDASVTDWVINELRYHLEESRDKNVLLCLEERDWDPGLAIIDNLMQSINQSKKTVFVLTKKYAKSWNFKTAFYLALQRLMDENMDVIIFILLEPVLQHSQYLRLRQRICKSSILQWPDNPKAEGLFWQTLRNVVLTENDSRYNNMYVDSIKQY
Method in brief: as §1

With `CC(C(=O)N1CC(O)C1)n1cc2c(N)nc3cc(-c4ccn[nH]4)ccc3c2n1` (stereo not drawn) [Example 579] the EC50 (THP-1 cells) was 4.47 µM, the EC50 (TLR7) was over 100 µM and the EC50 (TLR8) was over 100 µM.

Molecule `CC(C(=O)N1CC[C@H](C#N)C1)n1cc2c(N)nc3cc(-c4ccn[nH]4)ccc3c2n1` (stereo partly drawn) [Example 580] has an EC50 (THP-1 cells) of 20.1 µM, an EC50 (TLR7) of over 100 µM and an EC50 (TLR8) of over 100 µM.

With `COCCNC(=O)C(C)n1cc2c(N)nc3cc(-c4ccn[nH]4)ccc3c2n1` (stereo not drawn) [Example 581] the EC50 (THP-1 cells) was 3.17 µM, the EC50 (TLR7) was over 100 µM and the EC50 (TLR8) was over 100 µM.

`COCCN(C)C(=O)C(C)n1cc2c(N)nc3cc(-c4ccn[nH]4)ccc3c2n1` (stereo not drawn) [Example 582] was tested, and the EC50 (THP-1 cells) was 3.3 µM, the EC50 (TLR7) was over 100 µM and the EC50 (TLR8) was over 100 µM.

Work on `CCN(CC)C(=O)C(C)n1cc2c(N)nc3cc(-c4ccn[nH]4)ccc3c2n1` (stereo not drawn) [Example 583] yielded an EC50 (THP-1 cells) of 1.82 µM, an EC50 (TLR7) of over 100 µM and an EC50 (TLR8) of over 100 µM.

In the case of `CC(C(=O)N(C)CCO)n1cc2c(N)nc3cc(-c4ccn[nH]4)ccc3c2n1` (stereo not drawn) [Example 584], the EC50 (THP-1 cells) is reported as 5.03 µM, the EC50 (TLR7) is reported as over 100 µM and the EC50 (TLR8) is reported as over 100 µM.

For `COCCS(=O)(=O)NCCCn1cc2c(N)nc3cc(-c4ccn[nH]4)ccc3c2n1` [Example 585], the EC50 (THP-1 cells) was 3.88 µM, the EC50 (TLR7) was over 100 µM and the EC50 (TLR8) was over 100 µM.

For `CS(=O)(=O)NCCCn1cc2c(N)nc3cc(-c4ccn[nH]4)ccc3c2n1` [Example 586], the EC50 (THP-1 cells) was 2.18 µM, the EC50 (TLR7) was over 100 µM and the EC50 (TLR8) was over 100 µM.

Molecule `Nc1nc2cc(-c3ccn[nH]3)ccc2c2nn(CCCNS(=O)(=O)c3ccccc3)cc12` [Example 587] has an EC50 (THP-1 cells) of 2.39 µM, an EC50 (TLR7) of over 100 µM and an EC50 (TLR8) of over 100 µM.

With `CC(C)S(=O)(=O)NCCCn1cc2c(N)nc3cc(-c4ccn[nH]4)ccc3c2n1` [Example 588] the EC50 (THP-1 cells) was 10.9 µM, the EC50 (TLR7) was over 100 µM and the EC50 (TLR8) was over 100 µM.

Molecule `Nc1nc2cc(-c3ccn[nH]3)ccc2c2nn(CCCNS(=O)(=O)C3CC3)cc12` [Example 589] has an EC50 (THP-1 cells) of 2.62 µM, an EC50 (TLR7) of over 100 µM and an EC50 (TLR8) of over 100 µM.

For `Nc1nc2cc(-c3ccn[nH]3)ccc2c2nn(CCNS(=O)(=O)C3CC3)cc12` [Example 590], the EC50 (THP-1 cells) was 1.2 µM, the EC50 (TLR7) was over 100 µM and the EC50 (TLR8) was over 100 µM.

Work on `CC(C)(Cn1cc2c(N)nc3cc(-c4ccn[nH]4)ccc3c2n1)C(=O)N1CCOCC1` [Example 591] yielded an EC50 (THP-1 cells) of 17 µM, an EC50 (TLR7) of over 100 µM and an EC50 (TLR8) of over 100 µM.

`CN(C)C(=O)C(C)(C)Cn1cc2c(N)nc3cc(-c4ccn[nH]4)ccc3c2n1` [Example 592] gave an EC50 (THP-1 cells) of 0.68 µM, an EC50 (TLR7) of over 100 µM and an EC50 (TLR8) of over 100 µM.

`Nc1nc2cc(-c3ccn[nH]3)ccc2c2nn(CCNS(=O)(=O)N3CCOCC3)cc12` [Example 593] gave an EC50 (THP-1 cells) of 28.1 µM, an EC50 (TLR7) of over 100 µM and an EC50 (TLR8) of over 100 µM.

Molecule `CC(C)(Cn1cc2c(N)nc3cc(-c4ccn[nH]4)ccc3c2n1)C(=O)NCCO` [Example 594] has an EC50 (THP-1 cells) of 7.94 µM, an EC50 (TLR7) of over 100 µM and an EC50 (TLR8) of over 100 µM.

`Nc1nc2cc(-c3ccn[nH]3)ccc2c2nn(CCCNS(=O)(=O)c3cccnc3)cc12` [Example 595] showed an EC50 (THP-1 cells) of 12.9 µM, an EC50 (TLR7) of over 100 µM and an EC50 (TLR8) of over 100 µM.

`CC(C)(Cn1cc2c(N)nc3cc(-c4ccn[nH]4)ccc3c2n1)C(=O)NCC(F)F` [Example 596] was tested, and the EC50 (THP-1 cells) was 10.1 µM, the EC50 (TLR7) was over 100 µM and the EC50 (TLR8) was over 100 µM.
